Experimental data taken from PubChem BioAssay (NCI).
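96-well plates; 48 h exposure; 5 concentrations. Endpoints by linear interpolation between flanking doses. Not reached: highest tested concentration assigned. TGI: concentration producing complete growth inhibition.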

Key:
Assay in all cases: DTP human tumour cell line panel, 48 h
CAKI-1 renal = tested on: CAKI-1 renal
HCT-116 colon = tested on: HCT-116 colon
HT29 colon = tested on: HT29 colon
MDA-MB-231 breast = tested on: MDA-MB-231 breast
NCI-H522 lung = tested on: NCI-H522 lung
OVCAR-3 ovarian = tested on: OVCAR-3 ovarian
SN12C renal = tested on: SN12C renal
SW-620 colon = tested on: SW-620 colon

SMILES | TGI (CAKI-1 renal) [µM] | TGI (HCT-116 colon) [µM] | TGI (HT29 colon) [µM] | TGI (MDA-MB-231 breast) [µM] | TGI (NCI-H522 lung) [µM] | TGI (OVCAR-3 ovarian) [µM] | TGI (SN12C renal) [µM] | TGI (SW-620 colon) [µM]
COc1ccc(CNc2ccn(C3OC(CO)C(O)C3O)c(=O)n2)cc1 (configuration not stated) | > 100 | > 100 | > 100 | > 100 | > 100 | > 100 | > 100 | > 100
CC(NC(=O)OCc1ccccc1)NC(=O)OC(C)(C)C (configuration not stated) | > 100 | > 100 | > 100 | > 100 | > 100 | > 100 | > 100 | > 100
C=C(C)C1CC=C(C)C(=O)C1 (configuration not stated) | > 100 | > 100 | > 100 | > 100 | > 100 | > 100 | > 100 | > 100
CC(C)CCCC(C)[C@H]1CC[C@H]2n3c(nnc3-c3ccccc3)CCC[C@]12C (some centres not stated) | 29.7 | 40.4 | 60.5 | 37.9 |  | 25.2 | 27.5 | 47.5
O=C1c2c(Br)sc(Br)c2C(NC(=O)C(F)(F)F)C1O (configuration not stated) | 31.4 | 32.6 | 53.6 | 38.5 | 27.3 | 43.7 | 34.1 | 40
O=C(O)c1cccc(Nc2c(C(=O)O)cccc2[N+](=O)[O-])c1 | > 100 | > 100 | > 100 | > 100 | > 100 | > 100 | > 100 | 
Cc1cccc(N/C(=C(/C(Cl)=C(Cl)Cl)[N+](=O)[O-])n2nnc3ccccc32)c1 | 31.4 | 32.9 | 33.3 | 27.1 |  | 35.5 | 32.9 | 29.2
Cc1sc2nc(N(C)C)oc(=O)c2c1C | > 100 | > 100 | > 100 | > 100 | > 100 |  | > 100 | > 100
CCOC(=O)C1(CO)CSCCSC1 |  | > 100 | > 100 | > 100 | > 100 |  | > 100 | > 100
COC(=O)/C(C)=N/NC(=S)SC | > 100 | 98.5 | > 100 | > 100 | 81.8 | > 100 |  | > 100
Cc1nc2ccccc2c(=O)n1NC(=O)c1ccccn1 |  | > 100 | > 100 | > 100 | > 100 | > 100 | > 100 | > 100
Cc1ccc(-c2c(C#N)c(-c3ccccc3)n(NS(=O)(=O)c3ccc(C)cc3)c(=O)c2C#N)cc1 | > 100 | > 100 | > 100 | > 100 | > 100 |  | > 100 | > 100
CC1(C)C2CC(O)C1(C)CC2=O (configuration not stated) |  | > 100 | > 100 | > 100 | > 100 | > 100 | > 100 | > 100
Cc1cccc2nc(-c3ccccc3)cc(=O)n12 |  | > 100 | > 100 | > 100 | > 100 | > 100 | > 100 | > 100
O=C(CP(=O)(c1ccccc1)c1ccccc1)c1cccc(C(=O)CP(=O)(c2ccccc2)c2ccccc2)c1 | > 100 | > 100 | > 100 | > 100 |  |  | > 100 | > 100
CCC(C)C(=O)OC1C(=O)OC2CC3C(C)=CC(=O)C(O)C3(C)C3C4(O)OCC23C1C(C)C4O (configuration not stated) | 7.44 | 1.4 |  | 0.161 | < 0.0212 | 0.124 |  | 0.694
COc1cccc(Nc2nc(C)c([N+](=O)[O-])c(Nc3cccc(OC)c3)n2)c1 |  | > 100 | > 100 | > 100 | > 100 | 57.2 | > 100 | > 100
COC(=O)c1ccccc1/C=C1\Cc2c(ccc3c2CCC3)C1=O | > 100 | > 100 | > 100 |  | > 100 | > 100 | > 100 | > 100
NC(CSS(=O)(=O)O)=NC1CC2CCC1C2 (configuration not stated) | > 100 | > 100 |  | > 100 | > 100 | > 100 | > 100 | > 100
C1=C(CC2=C[P+](c3ccccc3)(c3ccccc3)C=C(c3ccccc3)O2)OC(c2ccccc2)=C[P+]1(c1ccccc1)c1ccccc1 | 5.39 | 1.25 | 1.35 | 0.938 |  | 1.16 |  | 1.42
CCSc1nnc(Sc2c3ccccc3nc3ccccc23)s1 | 15.5 | 23.5 | > 55.6 | 56.6 |  | 29.4 | 59.9 | > 40.8
O=C1c2ccccc2C(=O)C2NC(CCCCCSSCCCCCC3=NC4C(=O)c5ccccc5C(=O)C4N3)=NC12 (configuration not stated) | > 100 | > 100 | > 100 | > 100 | > 100 | > 100 |  | > 100
Cc1ccc(S(=O)(=O)NC(=O)NCc2ccc(S(N)(=O)=O)cc2)cc1 | > 100 | > 100 | > 100 | > 100 | > 100 | > 100 |  | > 100
COc1ccc(CC2Cc3ccccc3CCN2)cc1OC (configuration not stated) | > 50 | > 50 | > 50 | > 50 |  | > 50 | > 50 | > 50
CC12CCCC(C(=O)O)(C1)[C@H](C(C)(C)C(=O)O)CC2 (some centres not stated) | > 100 | > 100 | > 100 |  | > 100 | > 100 | > 100 | > 100
CC(=O)NC1C(OCc2ccccc2)OC(CO)C(O)C1OC(C)C(=O)NC(C(=O)NC(CCC(=O)NCCCC(=O)Nc1ccc2c(c1)CN1C(=O)c3ccccc3C1=N2)C(N)=O)C(C)C (configuration not stated) | > 100 | > 100 | > 100 | > 100 |  | > 100 | > 100 | > 100
